This note sets out measurements from US10045531B2, “Use of one or more fatty acid esters as insecticide and/or arachnicide” (Oleon NV, priority 2014, dated 2018).

One series deals with Rhopalosiphum padi. Briefly: Efficacy on aphids on infested wheat seedlings, spray treatment. The following applies: sprayed on wheat seedlings. The series is classed as in vivo. The procedure:
The trial was carried out on wheat infected with aphids.
Rhopalosiphum padi aphids are reared on wheat in the laboratory. The rearing conditions are as follows: 14 hrs in the light at 18° C., and 10 hrs in darkness at 15° C. at a relative humidity (RH) of 60-70%.
“Triticum aestivum” wheat of the Apache variety is grown under the following conditions: 14 hrs in the light at 18° C., and 10 hrs in darkness at 15° C. at a relative humidity (RH) of 60-70%. For the experiments, seedlings having reached stage 12 on the BBCH-scale, i.e. 2 leaves, are chosen.
On D-1, 3 adult aphids are placed on each wheat seedling (approximately 30 seedlings per dose tested). The seedlings are kept for 14 hrs in the light at 18° C., and 10 hrs in darkness at 15° C. at a relative humidity (RH) of 60-70%.
On day D, the seedlings are treated with a composition as described in Example 1.a.). Emulsions containing the following doses of isoamyl laurate were tested: 1.35 L/ha (N/4), 2.7 L/ha (N/2), […] (N), 10.8 L/ha (2N) and 16.2 L/ha (3N). Two controls are carried out: a first control using water and a second control using the adjuvant, tested alone, at a dose of 1.8 L/ha, which corresponds to the dose of adjuvant contained in dose 3N of isoamyl laurate. The volume of composition sprayed corresponds to the equivalent of 200 L/ha.
For the treatment, nozzles are used to spray the different emulsions and to produce a good distribution of the drops over the plants (TeeJet 100015-VS flat spray nozzle used on a Euro-Pulvé laboratory sprayer).
On D+1, D+3, D+7, the adults and larvae present on each seedling are counted.
Statistical analysis is carried out using XLSTATS and a variance analysis is carried out using a Newman-Keuls and a Dunnett's test. The Dunnett's tests used post hoc following an ANOVA give a probability of 0.00.
The seedlings are treated on day D with a composition as described in Example 1.b). An emulsion containing the following dose of 2-ethylhexyl caprate was tested: 16.2 L/ha (3N). […]

A further series concerns Ostrinia nubilalis. Briefly: Efficacy on the European corn borer on corn leaves, spray treatment. The series is classed as in vivo. As to conditions: dose 6.0 L/ha, composition 1.a, counted on D+3. The procedure: The test was carried out on corn infected by the European corn borer. Egg clusters from Ostrinia nubilalis are kept under controlled laboratory conditions in order to allow the eggs to develop. The eggs are kept for 14 hrs in the light and at 18° C., and for 10 hrs in the dark at 15° C. at a relative humidity varying from 60 to 70%. After emerging, the larvae at the 1st and 2nd instar stages are used in the experiment. “Zea Mays” corn of the variety DK315 is grown under the following conditions: 14 hrs in the light at 18° C., and 10 hrs in darkness at 15° C. at a relative humidity (RH) of 60-70%. On D-1, 3 corn leaves are taken from the seedlings and placed in ventilated plastic boxes. 10 larvae are then placed onto the corn leaves in each box, the trial being repeated three times. The larvae are kept for 14 hrs in the light at 18° C., and 10 hrs in darkness at 15° C. at a relative humidity (RH) of 60-70%. The leaves are treated on day D with a composition as described in Example 1.a) with a dose of isoamyl laurate equivalent to 6.0 L/ha. For the treatment, nozzles are used to spray the composition in example 1.a) and to produce a good distribution of the drops onto the plants (TeeJet 110015-VS flat spray nozzle used on a Euro-Pulvé laboratory sprayer). […] On D+3, the larvae and adults present in each box are counted. […]

In series [1] the test system is Leptinotarsa decemlineata. Briefly: Efficacy on Colorado potato beetle larvae, leaf soaking, IRAC method no.7. It is filed as in vivo. The following applies: dose 6.0 L/ha, composition 1.a, L4 larvae, mortality after 5 hrs. The procedure: The efficacy of isoamyl laurate on Colorado potato beetles has been evaluated according to a protocol based on IRAC (Insecticide Resistance Action Committee) method no.7, version 3, June 2009. Eggs from the Colorado potato beetle are collected from fields and placed on the lower (abaxial) surface of potato leaves. After 4 to 15 days, the hatching of the eggs takes place, producing dark red-brown larvae. Potato leaves are treated by soaking for 5 seconds in a composition as described in Example 1.a) at a dose of isoamyl laurate equivalent to 6.0 L/ha. The potato leaves are infested on the abaxial face thereof with 5 Colorado potato beetle larvae at stage L4. Each trial is repeated a second time. Mortality is evaluated after 5 hrs. At a dose of 6.0 L/ha of isoamyl laurate, 10% efficacy is obtained on the Colorado potato beetle larvae.

A short description of series [2]: Trials comparing a concentrate containing isoamyl laurate with a commercial insecticide containing Lambda-cyhalothrin. As to conditions: concentrate containing isoamyl laurate vs commercial insecticide containing Lambda-cyhalothrin. An excerpt: Preferably, in the concentrates according to the invention, the insecticide and/or arachnicide compound of formula (I) is 3-methylbutyl dodecanoate (isoamyl laurate).

Series [3] relates to Pollen beetles Meligethes aeneus, strains resistant to pyrethroids. As to the kind of experiment: Efficacy on pollen beetles, coated glass phial, IRAC method no.11, strains resistant to pyrethroids. As to conditions: after 24 hrs. It is filed as in vivo. The procedure:
(§1) The efficacy of isoamyl laurate against pollen beetles has been evaluated according to a protocol based on IRAC (Insecticide Resistance Action Committee) method no.11, version 3, June 2009.
(§2) Pollen beetles are collected from different locations in infested fields. They are then kept in ventilated plastic boxes, in the bottom of which a dry paper has been placed. A number of oilseed rape leaves as well as 2 to 3 oilseed rape in flower are added as a food source. As it is important that the pollen beetles are not subjected to excessive temperatures, to humid conditions or other sources of stress following collection, they are kept under the following conditions: 14 hrs in the light at 18° C., and 10 hrs in darkness at 15° C. at a relative humidity (RH) of 60-70%.
(§3) The isoamyl laurate product was solubilized in acetone. Each solution was then placed in a homogeneous manner on the inside of a glass phial 2 cm in diameter and 4 cm in height, until the acetone has completely evaporated. The quantity of insecticide provided by 0.5 mL of acetone solution is calculated in such a way that a unit of area of the phial is covered with the same quantity of insecticide as that carried by the same unit of area of a leaf belonging to a field having undergone a treatment at 200 L/ha.
(§4) 10 pollen beetles are introduced into each phial, each trial being carried out twice.
(§5) Mortality is evaluated after 24 hrs.

The test system of series [4] is Pollen beetles Meligethes aeneus, susceptible. As to the kind of experiment: Efficacy on pollen beetles, coated glass phial, IRAC method no.11, susceptible strains. The series is classed as in vivo. The following applies: after 24 hrs. The method, then:
as §1, §2, §3, §4, §5

Setting [5] is: dose 3N (16.2 L/ha) on D+1, composition with Actirob B adjuvant.

Structures are written as SMILES.

Take `CCCCCCCCCC(=O)OCC(CC)CCCC` (stereo not shown) [2-ethylhexyl caprate]: in the series with Rhopalosiphum padi (setting [5]), the efficacy is approximately 55%.
Regarding `CCCCCCCCCCCCCCCC(=O)OCC(CC)CCCC` (stereo not shown) [2-ethylhexyl palmitate, reference compound], in the series with Rhopalosiphum padi (setting [5]), the efficacy result was “approximately 10%”.
`CCCCCCCCCCCC(=O)OCCC(C)C` [isoamyl laurate, 3-methylbutyl dodecanoate]: the “efficacy against the larvae and adults” value in the series with Ostrinia nubilalis was 19.5%. In addition, in series [1], the “efficacy (mortality) on larvae” value was 10%. For the same compound, in series [2], the “toxicity (aquatic toxicity, toxicity in humans through inhalation, irritation of the skin and eyes)” value is given as “less toxic”. The “Efficacy (%) Strains resistant to pyrethroids” value in series [3] (dose 2.0 L/ha) was 40%; in series [3] (dose 4.0 L/ha), 75%. Besides, the efficacy in the series with Rhopalosiphum padi (dose 3N (16.2 L/ha), composition 1.a with Actirob B adjuvant, FIG. 2) is given as approximately 80%. Further, the figures for the “Efficacy (%) Susceptible” value in series [4] (dose 2.0 L/ha) and in series [4] (dose 4.0 L/ha) were 55% and 90%, respectively.
